Measurements as given in US9771366B2, “Substituted tetrahydropyrido[3′,2′:4,5]pyrrolo[1,2-a]pyrazine-2-carboxamides as RSK inhibitors” (Phoenix Molecular Designs, priority 2016, dated 2017).
“Also recorded” adds a separate entry of the source. Where a name gives a salt, the structure may show the parent alone. Read-outs that look alike come from different tables or passages of the source. Blank lines part the entries; values can stand above or below the compound they belong to.

Experiments:
[1] = Solubility assessment at 20 mg/ml; assay type: physicochemical; details: for 20 mg/ml Solubility: dissolved in DMSO; for pH: 20 mg/ml solution
Experimental: Solubility is an important property for therapeutic drug candidates. Poor solubility can lead to low bioavailability resulting in suboptimal drug delivery. It can also prevent the evaluation of test agents in animals because the concentration(s) needed to achieve the desired effect cannot be achieved to poor solubility. For solubility assessments, small molecules targeting RSK were compared. For these assessments, 100 mM solutions of the compounds dissolved in DMSO were diluted in DMEM growth media (Life Technologies) supplemented with fetal bovine serum (FBS, Life Technologies) and 100 units/ml penicillin and 100 units/ml streptomycin (Life Technologies) to make 20 mg/ml solutions. Once diluted, the solutions were vortexed and examined for the formation of precipitates. […] For Compound 26, a 100 mM solution of the compound dissolved in DMSO was diluted in phosphate buffered saline (Life Technologies) to make a 20 mg/ml solution. The stock of […] was chosen because this is the upper end of what would be required to dose mice for a range of studies including MTD, PK, PD and efficacy. The pH of this solution was determined to be 2, as previously described. […] At high concentrations some RSK inhibitors were highly soluble while others were not. Compound 0 is (R)—N-(1-benzyl-1H-pyrazol-4-yl)-9-methyl-6-oxo-6,7,8,9-tetrahydropyrido[3′,2′:4,5]pyrrolo[1,2-a]pyrazine-2-carboxamide. Compound 0 was not soluble, whereas Compounds 18, 20, 21, 25 and 26 were soluble under the same conditions (Table 5).

CD34+ cells = test: Colony forming unit hematopoietic stem cell assay; assay type: cell-based, human; details: ratio of IC50 values against CD34+ cells and MDA-MB-231 cells
Experimental: The hematopoietic colony forming cell assay was conducted based on a protocol outlined by StemCell Technologies. […] Following the addition of CD34^+ cells isolated from human cord blood or peripheral blood (StemCell Technologies) at a final concentration of 5×10^2 cells per dish, the tubes were vortexed and allowed to stand for 5 minutes at room temperature. Next, the MethoCult mixtures were dispensed into 35 mm dishes (Corning Incorporated) through blunt end needles (StemCell Technologies) and 5 ml syringes (BD Biosciences) at a volume of 1.1 ml per dish. The medium was evenly distributed across the surface of each dish by gentle tilting and rotation. The dishes were then placed in a 100 mm culture dish (Grenier Bio-One) containing additional 35 mm dishes with sterile water to maintain humidity. The culture dish was then placed at 37° C. in a humidified incubator containing 5% CO2 for 13 days. The number of myeloid and erythroid derived colonies in both the treated and control dishes were counted and compared.

RSK2 = RSK2 (Homo sapiens (Human), UniProt P51812); test: Radioisotope kinase assay (SignalChem), RSK2; assay type: biochemical
Sequence of RSK2 (P51812 whole entry): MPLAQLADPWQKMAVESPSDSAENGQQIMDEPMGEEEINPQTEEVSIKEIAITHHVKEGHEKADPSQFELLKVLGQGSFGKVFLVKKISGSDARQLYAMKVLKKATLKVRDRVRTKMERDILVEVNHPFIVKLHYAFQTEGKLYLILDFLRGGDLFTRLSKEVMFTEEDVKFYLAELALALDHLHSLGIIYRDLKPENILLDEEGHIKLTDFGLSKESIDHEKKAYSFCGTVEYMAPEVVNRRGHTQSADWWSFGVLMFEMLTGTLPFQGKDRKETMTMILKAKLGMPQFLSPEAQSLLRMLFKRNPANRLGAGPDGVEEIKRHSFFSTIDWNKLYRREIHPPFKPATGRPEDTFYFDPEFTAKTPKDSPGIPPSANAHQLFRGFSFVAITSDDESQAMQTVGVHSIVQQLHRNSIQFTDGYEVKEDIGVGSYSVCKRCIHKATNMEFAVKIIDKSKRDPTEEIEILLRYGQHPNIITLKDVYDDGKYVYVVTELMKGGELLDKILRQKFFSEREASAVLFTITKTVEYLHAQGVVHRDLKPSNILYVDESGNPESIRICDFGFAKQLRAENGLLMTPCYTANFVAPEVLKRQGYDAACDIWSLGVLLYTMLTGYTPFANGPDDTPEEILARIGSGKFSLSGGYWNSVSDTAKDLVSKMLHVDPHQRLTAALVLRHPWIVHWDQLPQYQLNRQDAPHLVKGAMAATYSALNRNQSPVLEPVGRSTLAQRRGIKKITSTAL
Experimental: The assay conditions for the RSK2 kinase target were optimized to yield acceptable enzymatic activity. In addition, the assays were optimized to give high signal-to-noise ratio.
Radioisotope assays (SignalChem) were performed for the evaluation of the kinase target profiling and all assays were performed in a designated radioactive working area. The kinase targets were RSK1, RSK2, RSK3, RSK4 and MK2.
The assay was initiated by the addition of ^33P-ATP and the reaction mixture incubated at 30° C. for 15 minutes. After the incubation period, the assay was terminated by spotting 10 μL of the reaction mixture onto Multiscreen phosphocellulose P81 plate. The Multiscreen phosphocellulose P81 plate was washed 3 times for approximately 15 minutes each in a 1% phosphoric acid solution. The radioactivity on the P81 plate was counted in the presence of scintillation fluid in a Trilux scintillation counter.
Blank controls were set up for each target kinase which included all the assay components except the addition of the appropriate substrate (which was replaced with equal volume of assay dilution buffer). The corrected activity for each target kinase was determined by removing the blank control value.

HLA-DRA mRNA = test: Immuno-oncology: HLA-DRA mRNA expression; assay type: cell-based, Human; details: MDA-MB-231 and JIMT-1 cells; Compound 16 2 or 4 uM, Compound 18 1, 2, or 4 uM
Source text: (§1) A key feature of cancer is low immunogenicity. This can occur by several mechanisms that allow the cells to escape immune recognition. […] HLA-DRA is a member of MHC-II genes and CIITA is the master regulator of MHC II transcription. Thus it was surprising that CIITA, which would be expected to regulate MHC II gene expression, was not altered by RSK inhibition. […] HLA-DRA is important for immune recognition while PD-L1 is involved in immune checkpoints.

CIITA mRNA = test: Immuno-oncology: CIITA mRNA expression; assay type: cell-based, Human; details: MDA-MB-231 and JIMT-1 cells; Compound 16 2 or 4 uM, Compound 18 1, 2, or 4 uM
Source text: as §1

[2] = test system: CD274, the gene that encodes PD-L1; test: Immuno-oncology: CD274 expression in MDA-MB-231 cells; assay type: cell-based, Human; details: Compound 16 2 or 4 uM, Compound 18 1, 2 or 4 uM
Source text: as §1

[3] = test system: phosphorylated Y-box binding protein-1 (YB-1) at serine 102 (P—YB-1S102); test: Immunoblotting of phosphorylated YB-1 in MDA-MB-231 cells; details: MDA-MB-231, 0.01-1 uM, 96 hrs
Experimental: Following desired experimental conditions, breast cancer cell lines grown and treated in 6 well plates or 100 mm culture dishes (Grenier Bio-One) were placed on ice and the supernatant from each well was removed and the cells were washed in cold PBS. Following removal of PBS, cells were exposed to radioimmunoprecipitation assay (RIPA) buffer (50 mM Tris-HCl (pH 8), 150 mM NaCl, 1% NP-40, 0.5% sodium deoxycholate, 0.1% SDS; Fisher Scientific) supplemented with 1% phosphatase inhibitor (Fisher Scientific) and 1% protease inhibitor (Fisher Scientific) for 10 minutes. Samples were transferred to eppendorf tubes, vortexed and then centrifuged at 14 000 rpm for 10 minutes. Supernatants were collected as whole cell lysates. For mouse tumour tissues, each sample was place in a 35 mm culture dish with complete RIPA lysis buffer. The samples were diced in the buffer on ice with a sterile scalpel (VWR) and the buffer and tissue were transferred to an eppendorf tube. The samples were left on ice for 10 minutes with periodic vortexing every 2 to 3 minutes. The samples were then transferred to a Qiashredder (Qiagen) and centrifuged at 14 000 rpm for 2 minutes. The flow through was transferred to a new eppendorf tube and the samples were centrifuged again at 14 000 rpm for 5 minutes. Supernatants were collected as whole cell lysates.
For the majority of experiments in this study, 30 μg of protein per well was loaded. Samples were then resolved on SDS-PAGE (polyacrylamide gel electrophoresis) using various percentages of acrylamide gels (8%-12%), depending on the proteins of interest. […] For certain immunoblots, bands of proteins of interest were scanned and band intensity ratios were determined by densitometric analysis (ImageJ). […] To assess whether cells are actively undergoing cell death, the activity of poly ADP ribose polymerase (PARP) (1:1000 CST) was also measured using the immunoblotting method.

[4] = Plasma and tumor levels by LC/MS in MDA-MB-231 xenograft mice; assay type: in vivo; details: nu/nu, mouse, oral, 100 mg/kg; for concentration at 30 min: 30 minutes after last dose

- 20 mg/ml Solubility ([1]; diluted in DMEM): not soluble; also recorded: Precipitate
- solubility for systemic delivery / pharmacodynamics evaluation ([1]; mice): poor or nonexistent solubility
SMILES: C[C@@H]1CNC(=O)c2cc3ccc(C(=O)Nc4cnn(Cc5ccccc5)c4)nc3n21 [Compound 0, (R)—N-(1-benzyl-1H-pyrazol-4-yl)-9-methyl-6-oxo-6,7,8,9-tetrahydropyrido[3′,2′:4,5]pyrrolo[1,2-a]pyrazine-2-carboxamide, reference compound]
- Therapeutic Window (CD34+ cells): 50X

- IC50 (RSK2): 1380 nM
SMILES: C[C@@H]1CNC(=O)c2cc3ccc(NC(=O)c4cnn(Cc5ccccc5)c4)cc3n21 [Compound 11, (R)-1-benzyl-N-(4-methyl-1-oxo-1,2,3,4-tetrahydropyrazino[1,2-a]indol-7-yl)-1H-pyrazole-4-carboxamide]

- IC50 (RSK2): 23 nM
SMILES: C[C@@H]1CNC(=O)c2cc3ccc(C(=O)Nc4cnn(Cc5cccc(N)c5)c4)nc3n21 [Compound 16, (R)—N-(1-(3-aminobenzyl)-1H-pyrazol-4-yl)-9-methyl-6-oxo-6,7,8,9-tetrahydropyrido[3′,2′:4,5]pyrrolo[1,2-a]pyrazine-2-carboxamide]
- levels of HLA-DRA mRNA (HLA-DRA mRNA): elevated
- mRNA expression of CIITA (CIITA mRNA): little effect
- levels of CD274 [2]: reduced
- Therapeutic Window (CD34+ cells): >100X
- loss of P—YB-1 [3]: dose dependent loss

- IC50 (RSK2): 14 nM
SMILES: C[C@@H]1CNC(=O)c2cc3ccc(C(=O)Nc4cnn(Cc5ccccc5N)c4)nc3n21 [Compound 17, (R)—N-(1-(2-aminobenzyl)-1H-pyrazol-4-yl)-9-methyl-6-oxo-6,7,8,9-tetrahydropyrido[3′,2′:4,5]pyrrolo[1,2-a]pyrazine-2-carboxamide]

- IC50 (RSK2): 124 nM
- pH ([1]; DMSO diluted in DMEM): 8
- 20 mg/ml Solubility ([1]; diluted in DMEM): Soluble
SMILES: C[C@@H]1CNC(=O)c2cc3ccc(C(=O)Nc4cnn(CC5CCN(C)CC5)c4)nc3n21 [Compound 20, (R)-9-methyl-N-(1-((1-methylpiperidin-4-yl)methyl)-1H-pyrazol-4-yl)-6-oxo-6,7,8,9-tetrahydropyrido[3′,2′:4,5]pyrrolo[1,2-a]pyrazine-2-carboxamide]

- pH ([1]; DMSO diluted in DMEM): 9
- 20 mg/ml Solubility ([1]; diluted in DMEM): Soluble
SMILES: C[C@@H]1CNC(=O)c2cc3ccc(C(=O)Nc4ccccc4C(N)=O)nc3n21 [Compound 21, (R)—N-(2-carbamoylphenyl)-9-methyl-6-oxo-6,7,8,9-tetrahydropyrido[3′,2′:4,5]pyrrolo[1,2-a]pyrazine-2-carboxamide]

- 20 mg/ml Solubility ([1]; diluted in DMEM): Precipitate
SMILES: C[C@@H]1CNC(=O)c2cc3ccc(C(=O)Nc4cnn(Cc5ccc(C(F)(F)F)cc5)c4)nc3n21 [Compound 22, (R)-9-methyl-6-oxo-N-(1-(4-(trifluoromethyl)benzyl)-1H-pyrazol-4-yl)-6,7,8,9-tetrahydropyrido[3′,2′:4,5]pyrrolo[1,2-a]pyrazine-2-carboxamide]

- 20 mg/ml Solubility ([1]; diluted in DMEM): Precipitate
SMILES: C[C@@H]1CNC(=O)c2c(Cl)c3ccc(C(=O)Nc4cnn(Cc5ccccc5)c4)nc3n21 [Compound 24, (R)—N-(1-benzyl-1H-pyrazol-4-yl)-5-chloro-9-methyl-6-oxo-6,7,8,9-tetrahydropyrido[3′,2′:4,5]pyrrolo[1,2-a]pyrazine-2-carboxamide]

SMILES: C[C@@H]1CNC(=O)c2cc3ccc(C(=O)Nc4cnn(Cc5ccc(N)cc5)c4)nc3n21 [Compound 25, (R)—N-(1-(4-aminobenzyl)-1H-pyrazol-4-yl)-9-methyl-6-oxo-6,7,8,9-tetrahydropyrido[3′,2′:4,5]pyrrolo[1,2-a]pyrazine-2-carboxamide hydrochloride salt]
- IC50 (RSK2): 18 nM
- pH ([1]; DMSO diluted in DMEM, hydrochloride salt): 2
- 20 mg/ml Solubility ([1]; diluted in DMEM, hydrochloride salt): Soluble
- concentration at 30 min ([4]; plasma, 100 mg/kg BID PO three days, read-out: plasma level, average): 35.1 µM
- concentration at 30 min ([4]; tumor, 100 mg/kg BID PO 21 days, read-out: average concentration in the tumors): 7.7 µM
- concentration at 30 min ([4]; tumor, 100 mg/kg BID PO three days, read-out: Tumor level, average): 7.1 µM
- Kp at 30 min ([4]; tumor/plasma, three days of treatment, read-out: tumor uptake (ratio between tumor and plasma)): 0.2
- Therapeutic Window (CD34+ cells; hydrochloride salt): >100X

- pH at which the compound remained in solution ([1]; 20 mg/ml in PBS after 4M NaOH was added): 9
- pH ([1]; DMSO diluted in PBS, hydrochloride salt): 2-9
- 20 mg/ml Solubility ([1]; diluted in PBS, hydrochloride salt): Soluble
SMILES: C[C@@H]1CNC(=O)c2cc3ccc(C(=O)Nc4cnn(Cc5ccc(CN)cc5)c4)nc3n21 [Compound 26, (R)—N-(1-(4-(aminomethyl)benzyl)-1H-pyrazol-4-yl)-9-methyl-6-oxo-6,7,8,9-tetrahydropyrido[3′,2′:4,5]pyrrolo[1,2-a]pyrazine-2-carboxamide hydrochloride salt]

SMILES: CC(=O)O[C@H]1C(=O)[C@@]2(C)[C@H]([C@H](OC(=O)c3ccccc3)[C@]3(O)C[C@H](OC(=O)[C@H](O)[C@@H](NC(=O)c4ccccc4)c4ccccc4)C(C)=C1C3(C)C)[C@]1(OC(C)=O)CO[C@@H]1C[C@@H]2O [Taxol, paclitaxel, reference compound]
- Therapeutic Window (CD34+ cells): 6.9X
